In patent US20110152267A1, “Compositions and Methods for Treating Hyperproliferative Disorders” (Texas Tech University System, priority 2009, published 2011):

What was measured:
Assay type in all cases: cell-based, human
[1] = test system: PC-3 prostate adenocarcinoma cell line; test: DIMSCAN cytotoxicity, fenretinide + L-threo-sphinganines 3:1 (Example B17)
Procedure: (§1) Cytotoxicity Assay—Once again, cytotoxicity is determined using the DIMSCAN assay system (R. Proffitt et al., Cytometry 24, 204-213 (1996); T. Frgala et al., Mol Cancer Ther. 6:886-97, 2007). The system employs digital imaging microscopy to quantify viable cells, which selectively accumulate fluorescein diacetate to become brightly fluorescent. The system is capable of measuring cytotoxicity over a 4-5 log dynamic range by quenching the residual fluorescence of dead and dying cells with eosin Y and quantifying the total fluorescence of viable cells using digital thresholding. Measured fluorescence is directly proportionate to the number of viable cells. A comparison of the total fluorescence of a drug-treated cell population to the fluorescence of a similar number of untreated cells yields a survival fraction. In brief, 2000 to 10,000 cells/well (depending on size and growth rates) are replicate plated into 60 wells of a 96-well tissue culture plate in 0.1 mL of whole medium and allowed to attach overnight. Drug(s) are then added in 0.05 mL of whole medium to the final concentrations indicated. Drugs (fenretinide, and various chain length L-threo-sphinganines) were tested both as single agents and in a 3:1 ratio of fenretinide:sphinganine. C18-L-threo-sphinganine, or “safingol,” was also tested and results shown for reference. There are 12 wells treated per drug concentration. Twelve wells receive drug vehicle-only to the appropriate final concentration and serve as controls for the plate. Cells are incubated for 96 hours at 37° C. in ambient air with 5% CO2. Fluorescein diacetate is then added to each well in 0.05 mL media to a final concentration of 8 microgram/mL. Cells are incubated for a further 15 minutes at 37° C. and 0.03 mL of 0.5% eosin Y is added to each well. Total fluorescence of viable cells is then measured by digital imaging microscopy. Results were graphed as the ratio of the fluoresecence of drug-treated wells to non-drug treated control wells (i.e., Survival Fraction). All tests were performed at least twice. Representative results are shown.
(§2) The Combination Index (CI) is a term to describe mathematical modeling of the pharmacologic effects on cytotoxicity (cell death) of two drugs in combination based. Cytotoxic “synergy” is defined as a cell death affect which is greater than would be expected from a simple product of the single agent cytotoxicities alone (i.e. an “additive” effect). By Chou-Talalay analysis, a CI<0.9 on a Fraction Affected (“Fa”, i.e. fraction of cells killed) indicates synergy, with smaller numbers indicating greater synergy; a CI of 0.9-1.1 signifies an additive or near-additive effect; and a CI>1.1 means the drug combination is antagonistic.
Fenretinide and L-threo-sphinganines tested in human prostate adenocarcinoma (prostate cancer) cell line, PC-3.

[2] = test system: RPMI-8226 Multiple Myeloma cell line; test: DIMSCAN cytotoxicity, fenretinide + L-threo-sphinganines 3:1 (Example B2); conditions: 96 h
Procedure: as §1, §2
Fenretinide and L-threo-sphinganines tested in human Multiple Myeloma (a cancer of the blood and bone marrow) cell line, RPMI-8226.

[3] = test system: SJ-GBM2 Glioblastoma multiforme cell line; test: DIMSCAN cytotoxicity, fenretinide + L-threo-sphinganines 3:1 (Example B7); set-up: key to CI (Combination Index): Chou-Talalay CI: <0.9 synergy, 0.9-1.1 additive, >1.1 antagonism; conditions: 96 h
Procedure: as §1, §2
Fenretinide and L-threo-sphinganines tested in human Glioblastoma multiforme (brain cancer) cell line, SJ-GBM2.

[4] = test system: U-118 Glioblastoma cell line; test: DIMSCAN cytotoxicity, fenretinide + L-threo-sphinganines 3:1 (Example B5); set-up: key to CI (Combination Index): CI<0.9 synergy, 0.9-1.1 additive, >1.1 antagonistic; conditions: U-118 MG, 96 h
Procedure: as §1, §2
Fenretinide and L-threo-sphinganines tested in human Glioblastoma (brain cancer) cell line, U-118.

[5] = test system: PANC-1 pancreatic adenocarcinoma cell line; test: DIMSCAN cytotoxicity, fenretinide + L-threo-sphinganines 3:1 (Example B18)
Procedure: as §1, §2
Fenretinide and L-threo-sphinganines tested in human pancreatic adenocarcinoma (pancreas cancer) cell line, PANC-1.

[6] = 4-HPR 1.5 μM + L-threo-sphinganine 0.5 μM
[7] = 4-HPR 3 μM + L-threo-sphinganine 1 μM
[8] = 4-HPR 6 μM + L-threo-sphinganine 2 μM
[9] = 4-HPR 9 μM + L-threo-sphinganine 3 μM

CCCCCCCCC[C@H](O)[C@@H](N)CO [C12]
CI [1, 6]: 0.5 | Fa [1, 6]: 0.245 | CI [1, 7]: 0.8 | Fa [1, 7]: 0.328 | CI [1, 8]: 0.9 | Fa [1, 8]: 0.526 | CI [1, 9]: 0.8 | Fa [1, 9]: 0.721 | CI (Combination Index) [2, 6]: 0.8 | Fa (fraction affected) [2, 6]: 0.6 | CI (Combination Index) [2, 7]: 1.0 | Fa (fraction affected) [2, 7]: 0.757 | CI (Combination Index) [2, 8]: 0.7 | Fa (fraction affected) [2, 8]: 0.96 | CI (Combination Index) [2, 9]: 0.5 | Fa (fraction affected) [2, 9]: 0.988 | CI (Combination Index) [3, 6]: 0.5 | Fa (fraction affected) [3, 6]: 0.133 | CI (Combination Index) [3, 7]: 0.7 | Fa (fraction affected) [3, 7]: 0.271 | CI (Combination Index) [3, 8]: 0.7 | Fa (fraction affected) [3, 8]: 0.930 | CI (Combination Index) [3, 9]: 0.9 | Fa (fraction affected) [3, 9]: 0.968 | CI (Combination Index) [4, 6]: 1.5 | Fa (fraction affected) [4, 6]: 0.226 | CI (Combination Index) [4, 7]: 1.0 | Fa (fraction affected) [4, 7]: 0.671 | CI (Combination Index) [4, 8]: 0.3 | Fa (fraction affected) [4, 8]: 0.988 | CI (Combination Index) [4, 9]: 0.2 | Fa (fraction affected) [4, 9]: 0.996 | CI [5, 6]: 0.9 | Fa [5, 6]: 0.232 | CI [5, 7]: 3.1 | Fa [5, 7]: 0.119 | CI [5, 8]: 0.7 | Fa [5, 8]: 0.757 | CI [5, 9]: 0.2 | Fa [5, 9]: 0.977

CCCCCCCCCCCCCCCC[C@H](O)[C@@H](N)CO [C19, (2S,3S)-2-amino-1,3-nonadecanediol]
CI [1, 6]: 1.0 | Fa [1, 6]: 0.233 | CI [1, 7]: 1.1 | Fa [1, 7]: 0.406 | CI [1, 8]: 1.1 | Fa [1, 8]: 0.635 | CI [1, 9]: 0.5 | Fa [1, 9]: 0.913 | CI (Combination Index) [2, 6]: 0.9 | Fa (fraction affected) [2, 6]: 0.649 | CI (Combination Index) [2, 7]: 0.9 | Fa (fraction affected) [2, 7]: 0.895 | CI (Combination Index) [2, 8]: 0.5 | Fa (fraction affected) [2, 8]: 0.996 | CI (Combination Index) [2, 9]: >0.1 | Fa (fraction affected) [2, 9]: 1.000 | CI (Combination Index) [3, 6]: >>1 | Fa (fraction affected) [3, 6]: 0.001 | CI (Combination Index) [3, 7]: 0.4 | Fa (fraction affected) [3, 7]: 0.672 | CI (Combination Index) [3, 8]: 0.7 | Fa (fraction affected) [3, 8]: 0.925 | CI (Combination Index) [3, 9]: 0.8 | Fa (fraction affected) [3, 9]: 0.997 | CI (Combination Index) [4, 6]: 1.3 | Fa (fraction affected) [4, 6]: 0.530 | CI (Combination Index) [4, 7]: 0.9 | Fa (fraction affected) [4, 7]: 0.882 | CI (Combination Index) [4, 8]: 0.4 | Fa (fraction affected) [4, 8]: 0.991 | CI (Combination Index) [4, 9]: 0.3 | Fa (fraction affected) [4, 9]: 0.998 | CI [5, 6]: 1.5 | Fa [5, 6]: 0.182 | CI [5, 7]: 1.8 | Fa [5, 7]: 0.321 | CI [5, 8]: 1.4 | Fa [5, 8]: 0.663 | CI [5, 9]: 0.1 | Fa [5, 9]: 0.997

CCCCCCCCCCCC[C@H](O)[C@@H](N)CO [C15]
CI [1, 6]: 0.6 | Fa [1, 6]: 0.200 | CI [1, 7]: 0.9 | Fa [1, 7]: 0.287 | CI [1, 8]: 1.2 | Fa [1, 8]: 0.417 | CI [1, 9]: 1.0 | Fa [1, 9]: 0.621 | CI (Combination Index) [2, 6]: 1.0 | Fa (fraction affected) [2, 6]: 0.518 | CI (Combination Index) [2, 7]: 1.1 | Fa (fraction affected) [2, 7]: 0.75 | CI (Combination Index) [2, 8]: 0.5 | Fa (fraction affected) [2, 8]: 0.978 | CI (Combination Index) [2, 9]: 0.2 | Fa (fraction affected) [2, 9]: 0.998 | CI (Combination Index) [3, 6]: 1.7 | Fa (fraction affected) [3, 6]: 0.086 | CI (Combination Index) [3, 7]: 1.1 | Fa (fraction affected) [3, 7]: 0.301 | CI (Combination Index) [3, 8]: 0.9 | Fa (fraction affected) [3, 8]: 0.765 | CI (Combination Index) [3, 9]: 1.0 | Fa (fraction affected) [3, 9]: 0.953 | CI (Combination Index) [4, 6]: 0.4 | Fa (fraction affected) [4, 6]: 0.371 | CI (Combination Index) [4, 7]: 0.5 | Fa (fraction affected) [4, 7]: 0.577 | CI (Combination Index) [4, 8]: 0.4 | Fa (fraction affected) [4, 8]: 0.847 | CI (Combination Index) [4, 9]: 0.1 | Fa (fraction affected) [4, 9]: 0.989 | CI [5, 6]: 2.9 | Fa [5, 6]: 0.078 | CI [5, 7]: 2.2 | Fa [5, 7]: 0.205 | CI [5, 8]: 1.7 | Fa [5, 8]: 0.486 | CI [5, 9]: 0.2 | Fa [5, 9]: 0.978
